Measurements published in patent publication US5459160A, “Iridoid derivatives and the use thereof as a drug” (Tsumura & Co., priority 1990, dated 1995).
Where two headings read alike, the source gives them in different places.

Legend:
hyperlipemia = assay: Anti-hyperlipemia test in rats on high fat food (Experimental Example 1); assay type: in vivo, Male Wistar rats; settings: peroral once a day, two weeks, control 100, Table 1
From the text: Male Wistar rats 6.5 weeks old were allowed to freely intake a high fat food (containing 1% of cholesterol, 0.5% of sodium cholate, 12% of beef tallow and 20% of standard chow) in the cource of two weeks, to thus cause an outbreak of hyperlipemia. The dose of the drug was started simultaneously with the application of the high fat food, and was perorally given once a day through a stomach tube until the end of the experiment. The drugs were all suspended in a cane sugar fatty acid ester and were administered. The oily compounds were adjusted in advance to 100 mg/m.iota. by diethyl ether. A suitable amount was collected at the time of the dose and after diethyl ether was evaporated and removed, it was suspended in a cane sugar fatty acid ester (1% ryoto sugar ester) and then given. After the final dose of the drug, the rats were fasted for about 18 hours, and the blood was sampled to measure the blood serum lipid. The blood serum lipid was measured by using a TBA-380 biochemical analyzer (a product of Toshiba Medical Co.,) unless a particular hindrance occurred.

bile secretion = assay: Cholagogic action, bile secretion (Experimental Example 5); assay type: in vivo, male Wistar rats; settings: intraduodenal
Procedure: After male Wistar rats 7 weeks old were fasted for 24 hours, they were anesthetized by the interperitoneal administration of 1.25 g/kg (volume 2 m.iota./kg) of urethane. A polyethylene canula (SP-10, a product of Natsume Seisakusho) was inserted into a bile duct and after the bile was caused to flow out for 30 minutes, the bile was collected in the cource of 1 hour. Thereafter, each test drug was suspended or dissolved in a 1% aqueous Tween-80 solution, and was administered into the duodenum at a rate of 5 m.iota./kg. Furthermore, the bile was collected every hour in the course of five hours, and its weight was measured. Only a 1% Tween-80 solution was given as a control.
The results are tabulated in Tables 6, 7, 8, 9 and 10, wherein the bile secretion amount every hour was represented by a percentage with the bile secretion amount (mg) one hour before the dose of the test drug being 100.

Acute toxicity test = settings: mouse, in vivo, ip; male S.P.P. mice, abdominally administered; Table 11
Procedure: The acute toxicity test was carried out by abdominally administering each test drug to male S.P.P. mice and determining an LD50 value.

[1] = test system: cholic acid and chenodeoxycholic acid synthetic activity in liver cells; assay: Synthetic activity of bile acid (cholic acid and chenodeoxycholic acid) in incubated liver cells (Experimental Example 3); assay type: cell-based, male Wistar rats; settings: Rattus norvegicus, Hepatocyte, 24 hours, 37° C., control 100; for activity at 1 µM: 10^-6 M; for activity at 0.1 µM: 10^-7 M; for activity at 0.01 µM: 10^-8 M
Procedure: Influences on Synthetic Activity of Bilic Acid in Incubated Liver Cell
The liver cells were separated from male Wistar rats 5.0-5.5 weeks old using a reflux method in accordance with the method of Nakamura et al (Toshikazu Nakamura "The Experimental Method for the Primary Cultured Hepatocytes", 1987). In this case, the separation of the cells was started at 9-10:00 a.m. The separated liver cells were floated in a Williams E medium inactivated by heat-treatment and containing 10% FBS, 20 mU/m.iota. insulin, […] dexamethasone, 100 IU/m.iota. peniciline and 100 μg/m.iota. streptomycin so that the cell density became 1×10^5 cells/cm^2 /0.2 m.iota.. The liver cells were planted in a cell density of 1×10^5 cells/cm^2 /0.2 m.iota. in a dish having a diameter of 60 mm. After incubation at 37° C. for 4 hours, a medium exchange was made and the medium was changed to 3 m.iota.. Next, [4-^14 C] cholesterol was added in an amount of 11.655 kBq per dish, and a 0.33% ethanol solution of each test drug was added. Control used only 0.33% ethanol. After incubation was carried out at 37° C. for 24 hours, the synthetic activity of cholic acid and chemodexycholic acid generated in the cells and the medium were measured.
Measurement of Cholic Acid and Chenodeoxycholic Acid Synthetic Activity
The measurement of cholic acid and chenodeoxycholic acid synthetic activity was carried out in accordance with the method of M. G. Pricen et al (Hans M. G. Pricen, Chrisstine M. G. HuJismans, Folkerr Kuipers, Roel J. Vonk and Herman Jan M. Kempen, J. Clin. Invest., 78: 1064-1071, 1986). Twenty-four hours later, the cells and the medium were collected from the incubated liver cells and the cells were pulverized by a ultrasonic pulverizer. Bile acid was separated and eluted by a column cartridge having an opposite phase system, i.e., "Sep-pak"® C18 (Waters Associates, Milford, Mass.), and the conjugation of conjugated bile acid was hydrolyzed using choloylglycine hydrolase. The extraction of bile acid was carried out using chloroform after the solution was rendered acidic by hydrochloric acid. The extract was dissolved in 100 μ.iota. of water:methanol (1:4, containing 40 μg/10 μ.iota. cholic acid and 100 μg/100 μ.iota. chenodeoxycholic acid). 80 μ.iota. of this solution was spotted onto an aluminum plate (MERCK, ART 5582) and was developed using a developing solution consisting of benzene/1,4-dioxane/acetic acid (20:10:2). After the TLC plate was exposed to an iodine gas stream and each spot of bile acid was confirmed, it was cut off and its radioactivity was measured by a liquid scintillation counter. To correct the proportion of elution of the Sep-pak and the hydroclysis and extraction of conjugated bile acid by choloylglycine hydrolase, 2 nCi of [^3 H(G)] taurocholic acid was added and 3H of the spot of cholic acid was measured after the supersonic pulverization and correction was thus carried out (TsuJita, Y., Kuroda, M., Shimada, Y., Tanzawa, K., Arai, M., Kenko, I., Tanaka, M., Tarumi, C., Watanabe, Y., and Fujii, Biochemical et Biophysics Acta. 877:50-60, 1986).
Non-radioactive cholic acid and chenodeoxycholic acid were added as a carrier, to clarify the position of the spot by the iodine gas stream when bile acid was developed, but for the β-muricholic acid, the position of the spot was indefinite even when the non-radioactive acids were added. Therefore, the portion estimated by the Rf value described in the reference was cut off and measured again.

[2] = Table 4, read-out: Relative amount of synthesized chenodeoxycholic acid
[3] = Table 4, read-out: Relative amount of synthesized cholic acid
[4] = 0-1 hour after dose, control 82.9, Table 6
[5] = 1-2 hour after dose, control 74.1, Table 6
[6] = 2-3 hour after dose, control 66.1, Table 6
[7] = 3-4 hour after dose, control 59.8, Table 6
[8] = 4-5 hour after dose, control 53.3, Table 6
[9] = Table 3, read-out: Relative amount of synthesized chenodeoxycholic acid
[10] = Table 3, read-out: Relative amount of synthesized cholic acid

SMILES: COC(=O)C1=COC(O)[C@@H]2[C@@H](CO)CC[C@H]12 (stereo partly drawn) [Definite Example 6, methyl (4aS, 7S, 7aS)-1,4a, 5,6,7,7a-hexahydro-1-hydroxy-7-(hydroxymethyl)cyclopenta[c]pyran-4-carboxylate]
- Blood serum cholesterol (%) (hyperlipemia; 10 mg/kg): 79.6%
- Blood serum triglyceride (%) (hyperlipemia; 10 mg/kg): 86.7%
- Blood serum cholesterol (%) (hyperlipemia; 30 mg/kg): 85.4%
- Blood serum triglyceride (%) (hyperlipemia; 30 mg/kg): 80.4%
- Bile secretion amount, percentage of the hour before dose (bile secretion; 0-1 hour after dose, control 84.1, Table 8): 111.4%
- Bile secretion amount, percentage of the hour before dose (bile secretion; 1-2 hour after dose, control 72.5, Table 8): 78.0%
- Bile secretion amount, percentage of the hour before dose (bile secretion; 2-3 hour after dose, control 63.8, Table 8): 66.7%
- Bile secretion amount, percentage of the hour before dose (bile secretion; 3-4 hour after dose, control 56.7, Table 8): 55.2%
- Bile secretion amount, percentage of the hour before dose (bile secretion; 4-5 hour after dose, control 51.2, Table 8): 50.3%
- LD50 (Acute toxicity test): 406 mg/kg

SMILES: COC(=O)C1=CO[C@@H](O[C@@H]2O[C@H](COC(C)=O)[C@@H](OC(C)=O)[C@H](OC(C)=O)[C@H]2OC(C)=O)[C@@H]2C(C)=CC[C@H]12 [Definite Example 7, methyl (1S, 4aS, 7aS)-1-(2,3,4,6-tetra-O-acetyl-β-D-glucopyranosyloxy)-1,4a, 5,7a-tetrahydro-7-methylcyclopenta[c]pyran-4-carboxylate]
- Blood serum cholesterol (%) (hyperlipemia; 10 mg/kg): 94.4%
- Blood serum triglyceride (%) (hyperlipemia; 10 mg/kg): 96.9%
- Blood serum cholesterol (%) (hyperlipemia; 30 mg/kg): 105%
- Blood serum triglyceride (%) (hyperlipemia; 30 mg/kg): 64.6%
- LD50 (Acute toxicity test): 382 mg/kg

SMILES: OCC1=CC[C@@H]2C(CO)=CO[C@@H](OC3CCCCO3)[C@H]12 (stereo partly drawn) [Definite Example 18, (1S, 4aS, 7aS)-4,7-bis(hydroxymethyl)-1,4a, 5,7a-tetrahydro-1-(2-tetrahydropyranyloxy)cyclopenta[c]pyran]
- Bile secretion amount, percentage of the hour before dose (bile secretion; 0-1 hour after dose, control 81.1, Table 9): 91.3%
- Bile secretion amount, percentage of the hour before dose (bile secretion; 1-2 hour after dose, control 66.6, Table 9): 74.6%
- Bile secretion amount, percentage of the hour before dose (bile secretion; 2-3 hour after dose, control 55.8, Table 9): 60.3%
- Bile secretion amount, percentage of the hour before dose (bile secretion; 3-4 hour after dose, control 49.0, Table 9): 51.1%
- Bile secretion amount, percentage of the hour before dose (bile secretion; 4-5 hour after dose, control 42.8, Table 9): 44.1%
- LD50 (Acute toxicity test): 559 mg/kg

SMILES: CC(C)(C)[Si](C)(C)OCC1=CC[C@@H]2C(CO)=CO[C@@H](O[Si](C)(C)C(C)(C)C)[C@H]12 [Definite Example 34, (1S, 4aS, 7aS)-1-(tert-butyldimethylsilyloxy)-7-[(tert-butyldimethylsilyloxy)methyl]-1,4a, 5,7a-tetrahydro-4-(hydroxymethyl)cyclopenta[c]pyran]
- LD50 (Acute toxicity test): 511 mg/kg

SMILES: CC1=COC(O)[C@H]2[C@@H]1CC[C@@H]2C (stereo partly drawn) [Definite Example 43, (4aS, 7S, 7aR)-1,4a, 5,6,7,7a-hexahydro-4,7-dimethylcyclopenta[c]pyran-1-ol]
- activity at 1 µM [1, 2]: 105%
- activity at 1 µM [1, 3]: 109%
- Bile secretion amount, percentage of the hour before dose (bile secretion; [4]): 156.2%
- Bile secretion amount, percentage of the hour before dose (bile secretion; [5]): 95.2%
- Bile secretion amount, percentage of the hour before dose (bile secretion; [6]): 76.1%
- Bile secretion amount, percentage of the hour before dose (bile secretion; [7]): 65.7%
- Bile secretion amount, percentage of the hour before dose (bile secretion; [8]): 58.3%
- LD50 (Acute toxicity test): 231 mg/kg

SMILES: C[C@H]1COC(O)[C@H]2[C@@H]1CC[C@@H]2C (stereo partly drawn) [Definite Example 44, (4R, 4aR, 7S, 7aR)-1,3,4,4a, 5,6,7,7a-octahydro-4,7-dimethylcyclopenta[c]pyran-1-ol]
- activity at 1 µM [1, 2]: 155%
- activity at 1 µM [1, 3]: 130%
- Bile secretion amount, percentage of the hour before dose (bile secretion; [4]): 137.2%
- Bile secretion amount, percentage of the hour before dose (bile secretion; [5]): 95.0%
- Bile secretion amount, percentage of the hour before dose (bile secretion; [6]): 78.4%
- Bile secretion amount, percentage of the hour before dose (bile secretion; [7]): 66.5%
- Bile secretion amount, percentage of the hour before dose (bile secretion; [8]): 59.8%
- LD50 (Acute toxicity test): 389 mg/kg

SMILES: C[C@@H](CO)[C@H]1CC[C@H](C)[C@H]1CO [Definite Example 45, (2R)-2-[(1R, 2R, 3S)-2-(hydroxymethyl)-3-methylcyclopent-1-yl]propan-1-ol]
- activity at 1 µM [1, 9]: 152%
- activity at 1 µM [1, 10]: 146%
- activity at 0.1 µM [1, 9]: 119%
- activity at 0.1 µM [1, 10]: 121%
- activity at 0.01 µM [1, 9]: 112%
- activity at 0.01 µM [1, 10]: 108%
- Bile secretion amount, percentage of the hour before dose (bile secretion; [4]): 163.8%
- Bile secretion amount, percentage of the hour before dose (bile secretion; 0-1 hour after dose, control 87.7, Table 7): 163.4%
- Bile secretion amount, percentage of the hour before dose (bile secretion; [5]): 99.7%
- Bile secretion amount, percentage of the hour before dose (bile secretion; 1-2 hour after dose, control 75.3, Table 7): 99.6%
- Bile secretion amount, percentage of the hour before dose (bile secretion; 2-3 hour after dose, control 65.0, Table 7): 75.2%
- Bile secretion amount, percentage of the hour before dose (bile secretion; [6]): 78.6%
- Bile secretion amount, percentage of the hour before dose (bile secretion; 3-4 hour after dose, control 58.7, Table 7): 61.7%
- Bile secretion amount, percentage of the hour before dose (bile secretion; [7]): 67.8%
- Bile secretion amount, percentage of the hour before dose (bile secretion; 4-5 hour after dose, control 51.8, Table 7): 53.3%
- Bile secretion amount, percentage of the hour before dose (bile secretion; [8]): 59.1%
- LD50 (Acute toxicity test): 406 mg/kg
